Each structure is given as a SMILES string.

In this assay the target is T1, 5HT1A serotonin receptor (Rattus norvegicus, UniProt P19327).
T1 construct: To the cerebral cortex enucleated from a Wistarstrain male rat; from tissue; host or cells: cerebral cortex of male Wistar rat, washed membrane homogenate
T1 sequence (P19327 1-422): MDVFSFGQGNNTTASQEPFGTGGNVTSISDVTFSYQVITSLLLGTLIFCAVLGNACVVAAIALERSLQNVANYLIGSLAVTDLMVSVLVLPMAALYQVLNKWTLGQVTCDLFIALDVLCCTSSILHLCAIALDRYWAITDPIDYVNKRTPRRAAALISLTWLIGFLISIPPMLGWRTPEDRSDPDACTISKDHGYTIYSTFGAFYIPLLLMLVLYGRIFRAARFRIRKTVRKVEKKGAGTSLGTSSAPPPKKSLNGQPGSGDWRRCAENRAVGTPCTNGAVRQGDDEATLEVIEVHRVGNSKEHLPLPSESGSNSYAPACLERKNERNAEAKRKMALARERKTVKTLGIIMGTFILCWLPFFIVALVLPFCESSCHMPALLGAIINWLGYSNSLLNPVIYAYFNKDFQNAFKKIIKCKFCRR
Kind of assay: Affinity for Serotonin Receptor ([3H]8-OH-DPAT binding, rat cerebral cortex homogenate). Further details: species or system rat (Wistar strain, male). The following applies: [3H]8-OH-DPAT 0.4 nM, 25° C., 30 minutes. On the procedure:
The test was conducted according to the method of S. T. Perouka (J. Neurochem., 47, 529-540 (1986)).
To the cerebral cortex enucleated from a Wistarstrain male rat was added 50 mM Tris-HCl (pH 7.7) buffer and the mixture was homogenized by using Polytron®. The homogenate was centrifuged at 40,000 G for 10 minutes, and to the obtained precipitate was added the same buffer to effect homogenization, followed by incubation at 37° C. for 30 minutes. The suspension was centrifuged again at 40,000 G for 10 minutes, and to the obtained precipitate was added the same buffer to effect homogenization, followed by centrifugation at 40,000 G for 10 minutes. To the final obtained precipitate was added 50 mM Tris-HCl (10 μm pargyline, 4 mM CaCl2, 0.1% ascorbic acid) (pH 7.4) buffer, to effect homogenization, and the homogenate was used for the binding test. The (^3 H) 8-OH-DPAT used for the binding test was 0.4 nM, with a protein amount of 0.4 to 0.6 mg/ml, and a total amount of 1 ml. After incubation at 25° C. for 30 minutes, the mixture was filtered by a filtration method using a Whatman GF/B filter, and the filter was washed three times with 5 ml of the same buffer.
To the filter was added a scintillation cocktail, and a measurement was conducted by a liquid scintillation counter.
Usually IC50 stands for the concentration needed to halve the response being measured. Low values mean higher potency, high ones lower potency. `O=C1c2ccccc2OCCN1CCCCN1CCN(c2ccccn2)CC1` [Example 27, 4-(4-(4-(2-pyridyl)piperazinyl)butyl)-2,3,4,5-tetrahydro-1,4-benzoxazepine-5-one] displayed a concentration for half-maximal inhibition (IC50) of 6.15 nM. For `COc1ccccc1N1CCN(CCCCN2CCOc3ccccc3C2=O)CC1` [Example 30], the 50% inhibitory concentration (IC50) stood at 2.62 nM. The compound `O=C1COc2ccccc2C(=O)N1CCCCN1CCN(c2ccccc2Cl)CC1` [Example 36, 4-(4-(4-(2-chlorophenyl)piperazinyl)butyl)-2,3,4,5-tetrahydro-1,4-benzoxazepine-3,5] yielded an IC50 of 2.31 nM. Under `O=C1COc2ccccc2C(=O)N1CCCCN1CCN(c2cccc(Cl)c2)CC1` [Example 39] stands 1.41 nM; under `O=C1COc2ccccc2C(=O)N1CCCCN1CCN(c2ccc(F)cc2)CC1` [Example 43, 4-(4-(4-(4-fluorophenyl)piperazinyl)-butyl)-2,3,4,5-tetrahydro-1,4-benzoxazepine-3,5], 2.48 nM. For the compound `O=C1COc2ccccc2C(=O)N1CCCCN1CCN(c2ncccc2Cl)CC1` [Example 48], the concentration for half-maximal inhibition (IC50) is 2.77 nM. Under `O=C1COc2ccccc2C(=O)N1CCCCN1CCN(c2ncccn2)CC1` [Example 52, 4-(4-(4-(2-pyrimidinyl)piperazinyl)butyl)-2,3,4,5-tetrahydro-1,4-benzoxazepine-3,5-d] stands 3.75 nM; under `COc1ccc2c(c1)C(=O)N(CCCCN1CCN(c3ncccc3Cl)CC1)C(=O)CO2` [Example 54, 7-methoxy-4-(4-(4-(3-chloro-2-pyridyl)-piperazinyl)butyl)-2,3,4,5-tetrahydro-1,4-benzoxazepine-3,5-dione], 4.91 nM.

On to `COc1ccc2c(c1)C(=O)N(CCCCN1CCN(c3ncccn3)CC1)C(=O)CO2` [Example 58, 7-methoxy-4-(4-(4-(2-pyrimidinyl)piperazinyl)butyl)-2,3,4,5-tetrahydro-1,4-benzoxaze-3,5-dione], for which the IC50 was 5.02 nM. With `O=C1COc2cc(Cl)ccc2C(=O)N1CCCCN1CCN(c2ccccn2)CC1` [Example 59, 8-chloro-4-(4-(4-(2-pyridyl)piperazinyl)butyl)-2,3,4,5-tetrahydro-1,4-benzoxazepine-3,5-dione] the figure was 1.78 nM; with `O=C1COc2cc(Cl)ccc2C(=O)N1CCCCN1CCN(c2ncccn2)CC1` [Example 64, 8-chloro-4-(4-(4-(2-pyrimidinyl)piperazinyl)butyl)-2,3,4,5-tetrahydro-1,4-benzoxazepine-3,5-dione], 4.1 nM; with `Cc1ccc2c(c1)OCC(=O)N(CCCCN1CCN(c3ccccn3)CC1)C2=O` [Example 65, 8-methyl-4-(4-(4-(2-pyridyl)piperazinyl)butyl)-2,3,4,5-tetrahydro-1,4-benzoxazepine-3,5-dione], 1.55 nM. Regarding `Cc1ccc2c(c1)OCC(=O)N(CCCCN1CCN(c3ncccn3)CC1)C2=O` [Example 70, 8-methyl-4-(4-(4-(2-pyrimidinyl)piperazinyl)butyl)-2,3,4,5-tetrahydro-1,4-benzoxazepine-3,5-dione], the IC50 came to 4.75 nM.

Compound `COc1ccc2c(c1)OCC(=O)N(CCCCN1CCN(c3ncccn3)CC1)C2=O` [Example 72, 8-methoxy-4-(4-(4-(2-pyrimidinyl)piperazinyl)butyl)-2,3,4,5-tetrahydro-1,4-benzoxazepine-3,5-dione] yielded a half-inhibitory concentration (IC50) of 4.26 nM. `COc1ccnc(N2CCN(CCCCN3C(=O)COc4ccccc4C3=O)CC2)n1` [Example 83, 4-(4-(4-(4-methoxy-2-pyrimidinyl)piperazinyl)butyl)-2,3,4,5-tetrahydro-1,4-benzoxazepine-3,5-dione]: the IC50 was 4.16 nM.

(Values after US5071845A, “Benzoxazepine derivative” (Suntory Limited, priority 1988, dated 1991).)
